# US12251373B2, “Compounds and methods of treating retinal degeneration” (CASE WESTERN RESERVE UNIVERSITY, priority 2017, dated 2025)
# What was measured:
# rod opsin = molecular target: T1, rod opsin (Bos taurus, UniProt P02699); assay: Raman spectroscopy of rod opsin crystal soaked with compound; format: binding, bovine; conditions: Raman difference spectrum, FIG. 4f
# T1 construct: ROS membranes were isolated from bovine retinas under dim red light; from tissue; host or cells: bovine retina rod outer segment (ROS) membranes, bleached with hydroxylamine
# T1 sequence (P02699 whole entry): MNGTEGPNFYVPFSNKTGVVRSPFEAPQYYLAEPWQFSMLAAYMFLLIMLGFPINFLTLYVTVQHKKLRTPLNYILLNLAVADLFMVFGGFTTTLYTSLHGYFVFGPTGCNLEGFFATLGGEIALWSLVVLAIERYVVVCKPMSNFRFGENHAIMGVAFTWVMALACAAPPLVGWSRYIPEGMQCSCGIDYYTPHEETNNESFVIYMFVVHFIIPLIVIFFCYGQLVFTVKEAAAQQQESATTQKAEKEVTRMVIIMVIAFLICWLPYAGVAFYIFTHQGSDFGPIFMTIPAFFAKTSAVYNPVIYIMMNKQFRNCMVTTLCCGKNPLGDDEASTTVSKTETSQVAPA
# Method: Bleached ROS membranes bearing opsin were solubilized with either 20 mM BTP, pH 7.5, or 50 mM MES, pH 6.4, together with 130 mM NaCl, 1 mM MgCl2, 10% sucrose, and 1% n-octyl-β-D-glucopyranoside (OG) for 1 h at 4° C. Insoluble debris was removed by centrifugation at 16,000 g for 5 min at 4° C. Crystallization screens were performed by the sparse matrix crystallization method based upon previously published crystallization conditions for rhodopsin and opsin. Each hanging drop was prepared by mixing equal volumes of solubilized opsin and a reservoir solution containing 3.0-3.6 M ammonium sulfate in 0.05-0.1 M sodium acetate buffer, pH 5.2-5.6. Crystals appeared within 2-5 days at 4° C. and were analyzed directly by Raman spectroscopy.
# Here, we used Raman microscopy to test if YC-001 binds rod opsin in a single crystal. A rod opsin crystal was transferred into 4.5 μL of fresh reservoir solution on a siliconized glass coverslip and transferred into a hanging drop crystallization tray where the well contained 1 mL of the same solution. An 80 mW, 647.1 nm Kr^+ laser beam (Innova 70 C, Coherent, Palo Alto, CA, USA) was focused on the rod opsin crystal with a 20× objective. The Raman spectrum of the rod opsin crystal was accumulated over 100×1 s. […]
# [1] = Quantification of YC-001 in mouse eye by HPLC; format: in vivo
# Method: To measure the amount of YC-001 in the eye following systemic delivery, YC-001 was administered to C57BL6 mice by i.p. injection at a dose of 200 mg kg^−1 bw. Mice then were euthanized at 30 min, 3 h and 24 h after these injections, and their eyes were removed for analysis. Eyes from two mice under the same treatment were homogenized on ice in 1 mL of PBS:methanol (1:1 ratio). Four-mL of hexanes were then added to the homogenized sample, and the mixture was vortexed for 15 s. The mixture was centrifuged at 3,220 g for 15 min at 4° C. to separate the hexanes from the aqueous layer. From the top hexane layer, 3.5 mL was transferred to a glass vial. This sample was then dried in a Savant speed vacuum concentrator (Thermofisher, Waltham, Massachusetts, USA) and dissolved in 300 μL methanol. One hundred-μL of dissolved sample were injected into an HPLC system connected to an Agilent Sil column (5 μm, 4.6×250 mm; Agilent Technologies, Santa Clara, CA) for separation with 10% ethyl acetate in hexanes at a flow rate 1.4 mL min^−1. A chromatogram of absorption at 340 nm was then obtained. A YC-001 standard was subjected to the same procedures as the ocular samples and used to establish a retention time at 13.2 min. By comparing ocular samples to its standard curve of YC-001, the amount of YC-001 was then quantified in pmol eye^−1 at different time points after its systemic administration. The identity of YC-001 in the peak fraction with a retention time of 13.2 min was confirmed by LC-MS using the same chromatography method as applied for HPLC.
# C57BL/6 mice = assay: Scotopic ERG recovery after bleaching; format: in vivo, mouse; conditions: 200 mg kg−1 i.p., compared to DMSO
# Method: C57BL/6 mice at 2 months of age were placed in the dark overnight. Mice then were divided into a YC-001-treated group, a DMSO-treated group, and an unbleached group. Each group contained 3 mice (2 females and 1 male). Mice were given a single dose of YC-001 at 200 mg kg^−1 by i.p. injection. The DMSO group was treated with an equivalent volume of DMSO compared to the YC-001-treated group. One h after YC-001 or DMSO administration, mouse eyes were treated with 1% tropicamide eye drops for pupil dilation, exposed to 2,000 lux of illumination for 5 min and returned to the dark. Mice were anesthetized after a bleach for scotopic ERG recordings. Briefly, every 5 min a single-flash scotopic ERG at 1.6 cd·s·m^−2 was recorded until 1 h after a bleach. A-wave amplitudes of each ERG recording were measured, averaged from three animals, and plotted as a function of time and fitted to a linear function using Origin software version 8.1.
compound,measurement,setting,value
O=C1OCC(c2ccc(Cl)s2)=C1c1cccs1 [YC-001],mode of binding to rod opsin,rod opsin,non-covalent binding
same,amount of YC-001 per eye,[1]; 0.5 h after i.p. injection at 200 mg kg−1 bw,About 70 pmol per eye
same,amount of YC-001 per eye,[1]; 3 h after i.p. injection at 200 mg kg−1 bw,280 pmol per eye
same,amount of YC-001 per eye,[1]; 24 h after i.p. injection at 200 mg kg−1 bw,undetectable
same,scotopic ERG a-wave recovery after bleach,C57BL/6 mice,did not inhibit rhodopsin regeneration
